From paper PMC4754833, “Rilpivirine analogs potently inhibit drug-resistant HIV-1 mutants” (Retrovirology, 2016)

Experiments:
HIV-1 RT mutant M184I = assay: single round infection assay, M184I; assay type: cell-based; details: Human immunodeficiency virus 1, M184I; ± SD, n=4
Description: (§1) The human osteosarcoma cell line, HOS, was obtained from Dr. Richard Schwartz (Michigan State University, East Lansing, MI) and grown in Dulbecco’s modified Eagle’s medium (Invitrogen, Carlsbad, CA) supplemented with 5 % (v/v) fetal bovine serum, 5 % newborn calf serum, and penicillin (50 units/ml) plus streptomycin (50 µg/ml; Quality Biological, Gaithersburg, MD). Virion production and single-round infectivity assays were used to determine antiviral activity (IC50 values) of the compounds as previously described.
pNLNgoMIVR-ΔEnv.LUC has been described previously. The RT open reading frame was removed from pNLNgoMIVR-ΔEnv.LUC (digestion with SpeI and SalI) and inserted between the SpeI and SalI sites of pBluescript II KS+. Using that construct as the wild-type template, we prepared the following HIV-1 RT mutants using the QuikChange II XL (Stratagene, La Jolla, CA) site-directed mutagenesis protocol kit: L100I, K103N, Y181C, Y188L, H221Y, K103N/Y181C, G190A, G190S, M230L, P236L, L100I/K103N, K103N/P225H, V106A/G190A/F227L, V106A, L234I, V106A/F227L, V106A/L234I, V106A/F227L/L234I, E40K, D67E, K101E, V111A, E138K, M184I, M184V, K101E/M184I, K101E/M184V, E138K/M184I, E138K/M184V, K101P, Y181I, and K101P/V179I. The following sense oligonucleotides were used with matching cognate antisense oligonucleotides (not shown) (Integrated DNA Technologies, Coralville, IA) in the mutagenesis: L100I, 5′-[…]-3′; L100I 2-103, 5′-[…]-3′; K103N, 5′-[…]-3′; Y181C, 5′-[…]-3′; Y188L, 5′-[…]-3′; H221Y, 5′-[…]-3′; G190A, 5′-[…]-3′; G190S, 5′-[…]-3′; P225H, 5′-[…]-3′; F227, 5′-[…]-3′; M230L, 5′-[…]-3′; P236L, 5′-[…]-3′; V106A, 5′-[…]-3′; L234I, 5′-[…]-3′; E40K, 5′-[…]-3′; D67E, 5′-[…]-3′; K101E, 5′-[…]-3′; V111A, 5′-[…]-3′; E138K, 5′-[…]-3′; M184I, 5′-[…]-3′; M184V, 5′-[…]-3′; K101P, 5′-[…]-3′; Y181I, 5′-[…]-3′; K101P/V179I, 5′-[…]-3′. The double mutants K103N/Y181C, K103N/P225H, and L100I/K103N were made using the previously generated K103N mutant and the appropriate oligonucleotides to add the second mutation, Y181C, P225, and L100I respectively. The double mutants V106A/F227L and V106A/L234I were prepared using the previously generated V106A mutant and the appropriate oligonucleotides to add the second mutation, F227L and L234I, respectively. The double mutants K101E/M184I and K101E/M184V were constructed using the previously generated K101E mutant and the appropriate oligonucleotides to add the second mutation, M184I and M184V, respectively. […]
(§2) 10.1186/s12977-016-0244-2 The IC50 values (nM) of RPV and the RPV analogs were determined against the NNRTI resistant mutants were measured by using a single round infection assay, n = 4. The concentrations (nM) are measured by reductions in luciferase reporter activity followed by the standard deviations. […]

[1] = system: HIV-1 RT mutant V106A/L234I; assay: single round infection assay, V106A/L234I; assay type: cell-based; details: V106A/L234I vs WT
Description: as §1
pNLNgoMIVR-ΔEnv.LUC has been described previously. The RT open reading frame was removed from pNLNgoMIVR-ΔEnv.LUC (digestion with SpeI and SalI) and inserted between the SpeI and SalI sites of pBluescript II KS+. Using that construct as the wild-type template, we prepared the following HIV-1 RT mutants using the QuikChange II XL (Stratagene, La Jolla, CA) site-directed mutagenesis protocol kit: L100I, K103N, Y181C, Y188L, H221Y, K103N/Y181C, G190A, G190S, M230L, P236L, L100I/K103N, K103N/P225H, V106A/G190A/F227L, V106A, L234I, V106A/F227L, V106A/L234I, V106A/F227L/L234I, E40K, D67E, K101E, V111A, E138K, M184I, M184V, K101E/M184I, K101E/M184V, E138K/M184I, E138K/M184V, K101P, Y181I, and K101P/V179I. […]
as §2

HIV-1 RT mutant V111A = assay: single round infection assay, V111A; assay type: cell-based; details: for IC50: Human immunodeficiency virus 1, V111A, ± SD, n=4; for fold-change of IC50 of the mutant relative to WT: V111A vs WT
Description: as §1
(§3) pNLNgoMIVR-ΔEnv.LUC has been described previously. The RT open reading frame was removed from pNLNgoMIVR-ΔEnv.LUC (digestion with SpeI and SalI) and inserted between the SpeI and SalI sites of pBluescript II KS+. Using that construct as the wild-type template, we prepared the following HIV-1 RT mutants using the QuikChange II XL (Stratagene, La Jolla, CA) site-directed mutagenesis protocol kit: L100I, K103N, Y181C, Y188L, H221Y, K103N/Y181C, G190A, G190S, M230L, P236L, L100I/K103N, K103N/P225H, V106A/G190A/F227L, V106A, L234I, V106A/F227L, V106A/L234I, V106A/F227L/L234I, E40K, D67E, K101E, V111A, E138K, M184I, M184V, K101E/M184I, K101E/M184V, E138K/M184I, E138K/M184V, K101P, Y181I, and K101P/V179I. The following sense oligonucleotides were used with matching cognate antisense oligonucleotides (not shown) (Integrated DNA Technologies, Coralville, IA) in the mutagenesis: L100I, 5′-[…]-3′; L100I 2-103, 5′-[…]-3′; K103N, 5′-[…]-3′; Y181C, 5′-[…]-3′; Y188L, 5′-[…]-3′; H221Y, 5′-[…]-3′; G190A, 5′-[…]-3′; G190S, 5′-[…]-3′; P225H, 5′-[…]-3′; F227, 5′-[…]-3′; M230L, 5′-[…]-3′; P236L, 5′-[…]-3′; V106A, 5′-[…]-3′; L234I, 5′-[…]-3′; E40K, 5′-[…]-3′; D67E, 5′-[…]-3′; K101E, 5′-[…]-3′; V111A, 5′-[…]-3′; E138K, 5′-[…]-3′; M184I, 5′-[…]-3′; M184V, 5′-[…]-3′; K101P, 5′-[…]-3′; Y181I, 5′-[…]-3′; K101P/V179I, 5′-[…]-3′. The double mutants K103N/Y181C, K103N/P225H, and L100I/K103N were made using the previously generated K103N mutant and the appropriate oligonucleotides to add the second mutation, Y181C, P225, and L100I respectively. The double mutants V106A/F227L and V106A/L234I were prepared using the previously generated V106A mutant and the appropriate oligonucleotides to add the second mutation, F227L and L234I, respectively. The double mutants K101E/M184I and K101E/M184V were constructed using the previously generated K101E mutant and the appropriate oligonucleotides to add the second mutation, M184I and M184V, respectively. The double mutants E138K/M184I and E138K/M184V were constructed using the previously generated E138K mutant and the appropriate oligonucleotides for the second mutation, M184I and M184V, respectively. The triple mutant V106A/F227L/L234I was made using the previously generated V106A/F227L double mutant and the appropriate oligonucleotides for the third mutation, L234I. The triple mutant V106A/G190A/F227L was constructed in a series of steps using the previously generated V106A mutant and the appropriate oligonucleotides for the second mutation, G190A, to generate the double mutant V106A/G190A, and then the triple mutant was made using double mutant V106A/G190A and oligonucleotides for the third mutation, F227L. […]
as §2

HIV-1 RT mutant E40K = assay: single round infection assay, E40K; assay type: cell-based; details: for IC50: Human immunodeficiency virus 1, E40K, ± SD, n=4; for fold-change of IC50 of the mutant relative to WT: E40K vs WT
Description: as §1
pNLNgoMIVR-ΔEnv.LUC has been described previously. The RT open reading frame was removed from pNLNgoMIVR-ΔEnv.LUC (digestion with SpeI and SalI) and inserted between the SpeI and SalI sites of pBluescript II KS+. Using that construct as the wild-type template, we prepared the following HIV-1 RT mutants using the QuikChange II XL (Stratagene, La Jolla, CA) site-directed mutagenesis protocol kit: L100I, K103N, Y181C, Y188L, H221Y, K103N/Y181C, G190A, G190S, M230L, P236L, L100I/K103N, K103N/P225H, V106A/G190A/F227L, V106A, L234I, V106A/F227L, V106A/L234I, V106A/F227L/L234I, E40K, D67E, K101E, V111A, E138K, M184I, M184V, K101E/M184I, K101E/M184V, E138K/M184I, E138K/M184V, K101P, Y181I, and K101P/V179I. The following sense oligonucleotides were used with matching cognate antisense oligonucleotides (not shown) (Integrated DNA Technologies, Coralville, IA) in the mutagenesis: L100I, 5′-[…]-3′; L100I 2-103, 5′-[…]-3′; K103N, 5′-[…]-3′; Y181C, 5′-[…]-3′; Y188L, 5′-[…]-3′; H221Y, 5′-[…]-3′; G190A, 5′-[…]-3′; G190S, 5′-[…]-3′; P225H, 5′-[…]-3′; F227, 5′-[…]-3′; M230L, 5′-[…]-3′; P236L, 5′-[…]-3′; V106A, 5′-[…]-3′; L234I, 5′-[…]-3′; E40K, 5′-[…]-3′; D67E, 5′-[…]-3′; K101E, 5′-[…]-3′; V111A, 5′-[…]-3′; E138K, 5′-[…]-3′; M184I, 5′-[…]-3′; M184V, 5′-[…]-3′; K101P, 5′-[…]-3′; Y181I, 5′-[…]-3′; K101P/V179I, 5′-[…]-3′. The double mutants K103N/Y181C, K103N/P225H, and L100I/K103N were made using the previously generated K103N mutant and the appropriate oligonucleotides to add the second mutation, Y181C, P225, and L100I respectively. The double mutants V106A/F227L and V106A/L234I were prepared using the previously generated V106A mutant and the appropriate oligonucleotides to add the second mutation, F227L and L234I, respectively. The double mutants K101E/M184I and K101E/M184V were constructed using the previously generated K101E mutant and the appropriate oligonucleotides to add the second mutation, M184I and M184V, respectively. The double mutants E138K/M184I and E138K/M184V were constructed using the previously generated E138K mutant and the appropriate oligonucleotides for the second mutation, M184I and M184V, respectively. The triple mutant V106A/F227L/L234I was made using the previously generated V106A/F227L double mutant and the appropriate oligonucleotides for the third mutation, L234I. The triple mutant V106A/G190A/F227L was constructed in a series of steps using the previously generated V106A mutant and the appropriate oligonucleotides for the second mutation, G190A, to generate the double mutant V106A/G190A, and then the triple mutant was made using double mutant V106A/G190A and oligonucleotides for the third mutation, F227L. The DNA sequence of each construct was verified by DNA sequence determination. The sequences encoding the mutant RTs were then subcloned into pNLNgoMIVR-ΔEnv.LUC (between the KpnI and SalI sites) to produce the mutant HIV-1 constructs. These DNA sequences were also checked independently by DNA sequence determination.
as §2

HIV-1 RT mutant M184V = assay: single round infection assay, M184V; assay type: cell-based; details: for IC50: Human immunodeficiency virus 1, M184V, ± SD, n=4
Description: as §1, §3, §2

[2] = system: HIV-1 RT mutant K103N/Y181C; parameters: method as in PMID 23217210; details: previous study; cited from earlier work
HIV-1 RT mutant Y188L = system: HIV-1 RT mutant Y188L; parameters: method as in PMID 23217210; details: previous study; cited from earlier work
HIV-1 RT mutant E138K = system: HIV-1 RT mutant E138K; parameters: method as in PMID 23217210; details: previous study; cited from earlier work

Structure (SMILES)	IC50 (HIV-1 RT mutant M184I) [nM]	fold-change of IC50 of the mutant relative to WT [1]	IC50 (HIV-1 RT mutant V111A) [nM]	IC50 (HIV-1 RT mutant E40K) [nM]	IC50 (HIV-1 RT mutant M184V) [nM]	IC50 [2] [nM]	fold-change of IC50 of the mutant relative to WT (HIV-1 RT mutant V111A)	fold-change of IC50 of the mutant relative to WT (HIV-1 RT mutant E40K)	IC50 (HIV-1 RT mutant Y188L) [nM]	also measured
Cc1cc(/C=C/C#N)cc(C)c1Nc1ncc2ncn(-c3ccc(C#N)cc3)c2n1 [compound 26]	5.6 ± 2.2	5	1.5 ± 0.8	4.2 ± 0.8	4.2 ± 0.99					
Cc1cc(/C=C/C#N)cc(C)c1Nc1ccnc(Nc2ccc(C#N)cc2)n1 [RPV, rilpivirine]						< 5	< 2	< 2		
Cc1cc(/C=C/C#N)cc(C)c1Nc1nc(Nc2ccc(C#N)cc2)c2nc[nH]c2n1 [compound 13]									< 10	
COc1ccc(Cn2cnc3c(Nc4ccc(C#N)cc4)nc(Nc4c(C)cc(/C=C/C#N)cc4C)nc32)cc1 [compound 12]	0.69 ± 0.2		0.76 ± 0.17	1 ± 0.04	1.6 ± 0.42		< 2	< 2		IC50 (HIV-1 RT mutant E138K): 15 nM; fold-change of IC50 of the mutant relative to WT (HIV-1 RT mutant M184V; M184V vs WT): 2
Cc1cc(/C=C/C#N)cc(C)c1Nc1nc(Nc2ccc(C#N)cc2)ncc1N [compound 7]						< 5			< 10	
Cc1cc(/C=C/C#N)cc(C)c1Nc1nc(Nc2ccc3scnc3c2)c2nc[nH]c2n1 [compound 21]		2						2	< 10	
